pIC50: −log10 of the molar value.
Biological target: endothelin receptors
Assay: Radioligand binding assay: [^125 I]ET-1 binding in porcine kidney membrane
Settings: membranes from inner medulla of porcine kidney; [^125 I]ET-1 16 pM; 60 minutes at 23° C.; read-out: Effect on specific binding of [^125 I]ET-1 in porcine kidney membrane, IC50
Description: Radioligand binding assay:
(a) Crude receptor membrane preparation:
Membranes as endothelin receptors were isolated from inner medulla of porcine kidney. The inner medulla of porcine kidney was placed in ice-cold buffer (0.25M sucrose, 5 mM Tris-HCl, 0.1 mM EDTA, pH 7.5). The inner medulla was homogenized in five volumes (w/v) of ice-cold buffer using a Brinkman Polytron PT-10 at a setting of 16,000 rpm for three 10-sec periods. The homogenate was centrifuged at 10,000×g for 20 minutes at 4° C. The pellet was discarded and the supernatant was centrifuged at 100,000×g for 60 minutes at 4° C. […]
To determine [^125 I]ET-1 binding to kidney, membrane suspensions prepared from kidney (10 μg of protein) were incubated by constant shaking for 60 minutes at 23° C. with [^125 I]ET-1 (range, 4-900 pM) in a total volume of 250 μl of buffer 1 that contained 0.1 mg/ml of bovine serum albumin. […] The filter disks were washed three times with 0.2 ml of ice-cold 50 mM Tris-HCl buffer (pH 7.5), and the radioactivity was counted in a gamma counter (Hewlett-Packard) with an efficiency of 71%. […] The Kd was determined by Scatchard analysis. […]

- pIC50: 7.17
Structure (SMILES): CC(C)C[C@@H](C(=O)N[C@H](Cc1cccc2ccccc12)C(=O)N[C@@H](C(=O)O)C(C)C)N(CCN(C)Cc1cccnc1)C(=O)Cc1ccccc1Cl [Compound A]
